Assay results published in patent US20250019357A1, “[…] MORPHIC FORMS AND MIXTURES FOR THE TREATMENT OF MENTAL DISORDERS OR MENTAL ENHANCEMENT” (TACTOGEN INC, priority 2021, published 2025).

Columns and labels:
SERT [1] = molecular target: T1, SERT (Rattus norvegicus (Rat), UniProt P31652); assay: In vitro rat synaptosome serotonin uptake inhibition assay (Examples 9, 58); type: biochemical; conditions: rat synaptosomes
Description: (§1) FIG. 7A is a graph showing results from an in vitro rat synaptosome serotonin uptake inhibition assay. […] Details and procedural information for this assay are described in Example 9. The x-axis is the log [dose] concentration measured in molar and the y-axis is the [^3H]-labeled 5-HT reuptake measured in percent.
as §1, with “176” for “7A”, “58.” for “9.”, “x-axis” for “x-axis is”, “concentration is” for “concentration”, “Molar units” for “molar”, “percent of maximum produced by the comparison releaser.” for “percent.”

SERT [2] = molecular target: T1, SERT; assay: In vitro rat synaptosome serotonin release (efflux) assay (Examples 9, 58); type: biochemical; conditions: rat synaptosomes
Description: as §1, with “7B” for “7A”, “release” for “uptake inhibition”, “release” for “reuptake”
as §1, with “177” for “7A”, “release” for “uptake inhibition”, “58.” for “9.”, “x-axis” for “x-axis is”, “release” for “reuptake”

5-HT2B = 5-HT2B (Homo sapiens (Human), UniProt P41595); assay: 5-HT2B antagonist assay (DiscoveRx Calcium NWPLUS, FLIPR); type: cell-based
Experimental: 5-HT2A and 5-HT2B Agonist and Antagonist Assays
The DiscoveRx Calcium NWPLUS Assay was used for detection of changes in intracellular calcium as signaled by an increase of dye fluorescence in cells expressing 5-HT2A receptors. Signal was measured on a fluorescent plate reader equipped with fluidic handling capable of detecting rapid changes in fluorescence upon compound stimulation.
To conduct the assay, cell lines were expanded from freezer stocks according to standard procedures. Cells (10,000cells/well) were seeded in a total volume of 50 μL ([…]) into black-walled, clear-bottom, Poly-D-lysine coated 384-well microplates and incubated at 37-C for the appropriate time prior to testing. DMSO concentration for all readouts was <0.2%. […]
Compound agonist activity was measured on a FLIPR Tetra. Calcium mobilization was monitored for 2 minutes with a 5 second baseline read. FLIPR read-Area under the curve was calculated for the two minute read. Compound activity was analyzed using CBIS data analysis suite (ChemInnovation, CA). Percentage activity was calculated as 100%×(mean RFU of test sample−mean RFU of vehicle control)/(mean MAX RFU control ligand −mean RFU of vehicle control). For antagonist mode assays, percentage inhibition was calculated as 100%×(1−(mean RFU of test sample−mean RFU of vehicle control)/(mean RFU of EC80 control−mean RFU of vehicle control)). […]

Chain of 5-HT2B (P41595 whole entry): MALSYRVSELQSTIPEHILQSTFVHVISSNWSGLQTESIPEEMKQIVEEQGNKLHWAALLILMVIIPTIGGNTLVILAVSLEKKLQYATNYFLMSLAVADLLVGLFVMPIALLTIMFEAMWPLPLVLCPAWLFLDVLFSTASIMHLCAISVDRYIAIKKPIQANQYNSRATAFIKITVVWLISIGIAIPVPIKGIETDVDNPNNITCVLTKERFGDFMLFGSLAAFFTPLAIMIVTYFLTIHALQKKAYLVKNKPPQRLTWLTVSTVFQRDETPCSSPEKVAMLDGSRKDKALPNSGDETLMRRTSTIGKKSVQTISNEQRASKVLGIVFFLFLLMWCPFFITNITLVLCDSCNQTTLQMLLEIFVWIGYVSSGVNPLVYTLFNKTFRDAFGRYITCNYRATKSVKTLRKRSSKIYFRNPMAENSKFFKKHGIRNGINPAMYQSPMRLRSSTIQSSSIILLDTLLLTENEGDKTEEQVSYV

CCC(Cc1ccc2ccoc2c1)NC (racemic) [RS-6-MBPB] was tested, and the “[3H]-labeled 5-HT reuptake (serotonin uptake inhibition)” value (SERT [1]) was “rapidly increases extracellular serotonin by inhibiting reuptake”, the “[3H]-labeled 5-HT release” value (SERT [2]) was “rapidly increases extracellular serotonin by stimulating release” and the IC50 (5-HT2B) was 3.08 µM.
